pIC50: −log10 of the molar value.
Key:
Type in all cases: cell-based
[1] = target: human EGFR exon 20 insertion ASV (V769_D770insASV) (Homo sapiens (Human), UniProt P00533, INS769ASV); assay: Ba/F3-EGFR-Exon20-ASV cell anti-proliferative assay (CellTiter 96 MTS, 72 h); settings: Ba/F3-EGFR-Exon20-ASV cells;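 note: Ba/F3 cells bearing the EGFR exon 20 ASV insertion, a line able to proliferate without IL-3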
Description: Ba/F3 cells expressing EGFR exon 20 insertions (named Ba/F3-EGFR-Exon20-NPG or Ba/F3-EGFR-Exon20-ASV) can proliferate in the absence of IL-3. The anti-proliferative activity of compounds were determined as follows: BaF3-EGFR-Exon20 cells (NPG or ASV) seeded in 96 well plates (2500 cells/well) were treated with test compound (dissolved in DMSO) at a series of concentrations (4-fold dilution, top concentration: 10,000 nM). The plates were incubated for 72 h in a 37° C. incubator with 5% CO2, and the number of viable cells in each well were measured indirectly by CellTiter 96® Aqueous One Solution Cell Proliferation Assay (Promega) This assay is a colorimetric method for determining the number of viable cells through measurement of their metabolic activity by detection of enzymatic conversion of tetrazolium salts into blue formazan derivatives. Reagent (20 μL) was added into each well, and the plates were returned to the incubator for 2 h. The absorbance in each well was then measured at 490 nm using an Envision plate reader (Perkin Elmer).

[2] = target: human EGFR E746-A750 deletion and T790M Mutation (DT) (Homo sapiens (Human), UniProt P00533, DEL746-750/T790M); assay: Ba/F3-EGFR-Del/T790M cell anti-proliferative assay (CellTiter 96 MTS, 72 h); settings: Ba/F3-EGFR-Del/T790M cells; for pIC50: read-out: EGFR exon 19 deletion and T790M mutation IC50
[3] = target: human EGFR exon 20 insertion NPG (H773_V774insNPG) (Homo sapiens, UniProt P00533, INS773NPG, cells depend on it); assay: Ba/F3-EGFR-Exon20-NPG cell anti-proliferative assay (CellTiter 96 MTS, 72 h); settings: read-out: EGFR exon 20 NPG insertion IC50
Sequence of human EGFR exon 20 insertion NPG (H773_V774insNPG) (P00533 with tags, fused parts or gaps INS773NPG limits assumed): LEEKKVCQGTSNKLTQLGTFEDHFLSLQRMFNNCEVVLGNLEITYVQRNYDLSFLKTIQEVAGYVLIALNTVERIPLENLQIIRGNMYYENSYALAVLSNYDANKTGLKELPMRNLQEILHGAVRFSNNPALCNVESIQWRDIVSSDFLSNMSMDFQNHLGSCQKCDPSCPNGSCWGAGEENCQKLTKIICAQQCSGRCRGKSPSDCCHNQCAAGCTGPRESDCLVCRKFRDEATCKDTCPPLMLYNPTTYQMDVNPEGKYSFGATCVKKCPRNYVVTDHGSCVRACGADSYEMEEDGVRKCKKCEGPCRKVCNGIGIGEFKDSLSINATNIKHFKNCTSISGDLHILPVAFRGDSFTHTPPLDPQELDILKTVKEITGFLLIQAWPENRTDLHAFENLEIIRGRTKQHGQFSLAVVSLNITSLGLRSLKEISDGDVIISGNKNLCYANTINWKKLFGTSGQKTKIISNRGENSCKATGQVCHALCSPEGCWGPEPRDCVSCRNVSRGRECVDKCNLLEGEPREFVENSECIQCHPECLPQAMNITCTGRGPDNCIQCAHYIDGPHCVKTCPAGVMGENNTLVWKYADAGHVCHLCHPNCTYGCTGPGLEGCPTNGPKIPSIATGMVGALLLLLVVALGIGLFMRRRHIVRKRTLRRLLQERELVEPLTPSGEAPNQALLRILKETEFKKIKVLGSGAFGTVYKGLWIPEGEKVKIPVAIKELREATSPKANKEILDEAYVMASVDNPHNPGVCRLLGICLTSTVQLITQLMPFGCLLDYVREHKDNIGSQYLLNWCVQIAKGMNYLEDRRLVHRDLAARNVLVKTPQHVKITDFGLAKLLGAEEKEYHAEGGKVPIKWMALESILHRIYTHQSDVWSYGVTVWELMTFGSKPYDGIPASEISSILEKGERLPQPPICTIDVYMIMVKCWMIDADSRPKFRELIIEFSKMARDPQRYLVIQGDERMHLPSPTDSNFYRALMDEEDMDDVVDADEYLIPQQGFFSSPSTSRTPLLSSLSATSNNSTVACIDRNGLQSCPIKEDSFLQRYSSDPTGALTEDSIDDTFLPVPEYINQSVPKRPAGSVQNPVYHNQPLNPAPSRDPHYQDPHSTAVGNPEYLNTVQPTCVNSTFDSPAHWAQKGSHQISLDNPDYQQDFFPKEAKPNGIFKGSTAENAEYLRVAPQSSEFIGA

[4] = target: Her2 exon 20 YVMA insertion (A775_G776ins YVMA) (Homo sapiens (Human), UniProt P04626, INS775YVMA); assay: Ba/F3-Her2 Exon20 YVMA cell anti-proliferative assay (CellTiter 96 MTS, 72 h); settings: Ba/F3-Her2 Exon20 YVMA cells
Sequence of Her2 exon 20 YVMA insertion (A775_G776ins YVMA) (P04626 other isoform, or with tags, fused parts or gaps ins YVMA behind 775): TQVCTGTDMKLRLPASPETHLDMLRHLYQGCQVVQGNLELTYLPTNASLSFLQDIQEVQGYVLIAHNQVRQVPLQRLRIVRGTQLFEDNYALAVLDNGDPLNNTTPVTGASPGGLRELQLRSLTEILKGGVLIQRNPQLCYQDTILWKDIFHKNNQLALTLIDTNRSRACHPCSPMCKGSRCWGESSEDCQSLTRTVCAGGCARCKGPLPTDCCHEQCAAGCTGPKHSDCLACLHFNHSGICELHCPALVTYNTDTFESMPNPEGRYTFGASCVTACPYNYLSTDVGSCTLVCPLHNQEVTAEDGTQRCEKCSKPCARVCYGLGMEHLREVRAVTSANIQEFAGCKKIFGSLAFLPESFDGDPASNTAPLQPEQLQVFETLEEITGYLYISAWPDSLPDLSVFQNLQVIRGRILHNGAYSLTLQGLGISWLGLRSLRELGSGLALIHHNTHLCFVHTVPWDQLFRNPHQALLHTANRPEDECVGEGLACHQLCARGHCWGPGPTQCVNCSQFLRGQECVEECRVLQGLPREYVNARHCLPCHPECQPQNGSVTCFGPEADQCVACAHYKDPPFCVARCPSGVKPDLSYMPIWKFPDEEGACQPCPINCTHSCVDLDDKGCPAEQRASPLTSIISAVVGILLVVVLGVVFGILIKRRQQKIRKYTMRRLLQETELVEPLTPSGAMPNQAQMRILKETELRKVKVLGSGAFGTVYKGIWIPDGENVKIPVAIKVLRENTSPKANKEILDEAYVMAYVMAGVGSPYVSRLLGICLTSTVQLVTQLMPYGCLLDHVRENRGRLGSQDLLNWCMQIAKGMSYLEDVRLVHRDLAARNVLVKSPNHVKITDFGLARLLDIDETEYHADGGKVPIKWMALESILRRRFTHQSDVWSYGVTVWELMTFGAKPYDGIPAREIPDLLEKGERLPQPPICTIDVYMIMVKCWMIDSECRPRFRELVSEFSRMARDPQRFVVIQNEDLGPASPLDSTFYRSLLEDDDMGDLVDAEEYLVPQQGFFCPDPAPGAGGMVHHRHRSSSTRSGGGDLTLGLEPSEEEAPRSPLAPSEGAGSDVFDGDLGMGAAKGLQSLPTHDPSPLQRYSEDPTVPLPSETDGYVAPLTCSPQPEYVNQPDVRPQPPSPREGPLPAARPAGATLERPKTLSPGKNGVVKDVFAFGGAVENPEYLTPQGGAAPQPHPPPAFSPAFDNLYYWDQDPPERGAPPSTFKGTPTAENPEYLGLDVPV
Description: Ba/F3 cells expressing Her2 Exon20 YVMA insertions (named Ba/F3-Her2 Exon20 YVMA) can proliferate in the absence of IL-3.

[5] = target: human EGFR L858R and T790M double mutation (LT) (Homo sapiens (Human), UniProt P00533, L858R/T790M); assay: Ba/F3-EGFR L858R/T790M cell anti-proliferative assay (CellTiter 96 MTS, 72 h); settings: Ba/F3-EGFR L858R/T790M cells; for pIC50: read-out: EGFR exon 21 L858R and T790M mutation IC50;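 for all read-outs here: Ba/F3 cells carrying the EGFR L858R/T790M double mutant are able to grow without IL-3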
Sequence of human EGFR L858R and T790M double mutation (LT) (P00533 25-1210 T790M/L858R): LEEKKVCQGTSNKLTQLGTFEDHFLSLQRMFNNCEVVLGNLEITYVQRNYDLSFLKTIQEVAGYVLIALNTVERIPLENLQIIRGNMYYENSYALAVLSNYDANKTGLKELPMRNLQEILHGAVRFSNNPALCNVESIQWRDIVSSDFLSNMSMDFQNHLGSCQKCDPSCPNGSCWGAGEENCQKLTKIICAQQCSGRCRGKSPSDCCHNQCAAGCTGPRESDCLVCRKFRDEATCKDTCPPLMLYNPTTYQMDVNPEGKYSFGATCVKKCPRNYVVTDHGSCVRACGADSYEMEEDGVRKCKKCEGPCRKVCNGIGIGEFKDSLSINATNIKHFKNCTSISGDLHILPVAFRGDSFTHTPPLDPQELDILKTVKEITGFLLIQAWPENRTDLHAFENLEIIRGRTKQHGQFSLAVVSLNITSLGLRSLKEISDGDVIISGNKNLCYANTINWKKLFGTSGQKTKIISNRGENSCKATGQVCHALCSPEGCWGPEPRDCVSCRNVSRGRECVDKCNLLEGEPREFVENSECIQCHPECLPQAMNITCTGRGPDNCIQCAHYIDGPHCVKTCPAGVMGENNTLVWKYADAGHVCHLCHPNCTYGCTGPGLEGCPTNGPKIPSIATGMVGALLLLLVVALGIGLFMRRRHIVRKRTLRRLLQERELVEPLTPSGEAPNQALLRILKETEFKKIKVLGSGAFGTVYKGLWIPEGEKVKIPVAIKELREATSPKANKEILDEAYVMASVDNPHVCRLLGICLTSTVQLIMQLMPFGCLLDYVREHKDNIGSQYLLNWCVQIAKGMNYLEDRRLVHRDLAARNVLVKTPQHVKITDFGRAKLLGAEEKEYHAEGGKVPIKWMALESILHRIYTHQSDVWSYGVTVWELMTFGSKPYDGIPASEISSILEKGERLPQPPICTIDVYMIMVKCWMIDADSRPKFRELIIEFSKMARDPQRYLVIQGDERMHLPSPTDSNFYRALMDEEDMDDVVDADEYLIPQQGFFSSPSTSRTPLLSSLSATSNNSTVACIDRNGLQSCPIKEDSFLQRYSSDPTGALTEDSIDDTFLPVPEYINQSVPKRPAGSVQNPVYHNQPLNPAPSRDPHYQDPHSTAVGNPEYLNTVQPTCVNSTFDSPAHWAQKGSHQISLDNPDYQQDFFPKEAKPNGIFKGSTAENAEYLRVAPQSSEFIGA
Description: An expression vector, pLVX-IRES puro (Clontech) coding for human EGFR L858R and T790M double mutation, was transfected into HEK293 cells by the Trans-Lentiviral ORF Packaging System (Thermo Scientific), to produce virus encoding EGFR L858R and T790M double mutations. […] Ba/F3 cells expressing EGFR L858R and T790M double mutation (named Ba/F3-EGFR L858R/T790M) can proliferate in the absence of IL-3. The anti-proliferative activity of compounds was determined as follows: BaF3-EGFR L858R/T790M cells seeded in 96 well plates (2500 cells/well) were treated with test compound (dissolved in DMSO) at a series of concentrations (4-fold dilution, top concentration: 10,000 nM). The plates were incubated for 72 h in a 37° C. incubator with 5% CO2, and the number of viable cells in each well were measured indirectly by CellTiter 96® Aqueous One Solution Cell Proliferation Assay (Promega; this assay is a colorimetric method for determining the number of viable cells through measurement of their metabolic activity by detection of enzymatic conversion of tetrazolium salts into blue formazan derivatives). Reagent (20 μL) was added into each well, and the plates were returned to the incubator for 2 h. The absorbance in each well was then measured at 490 nm using an Envision plate reader (Perkin Elmer).

Sequence of human EGFR exon 20 insertion ASV (V769_D770insASV) (P00533 other isoform, or with tags, fused parts or gaps ins ASV behind 769): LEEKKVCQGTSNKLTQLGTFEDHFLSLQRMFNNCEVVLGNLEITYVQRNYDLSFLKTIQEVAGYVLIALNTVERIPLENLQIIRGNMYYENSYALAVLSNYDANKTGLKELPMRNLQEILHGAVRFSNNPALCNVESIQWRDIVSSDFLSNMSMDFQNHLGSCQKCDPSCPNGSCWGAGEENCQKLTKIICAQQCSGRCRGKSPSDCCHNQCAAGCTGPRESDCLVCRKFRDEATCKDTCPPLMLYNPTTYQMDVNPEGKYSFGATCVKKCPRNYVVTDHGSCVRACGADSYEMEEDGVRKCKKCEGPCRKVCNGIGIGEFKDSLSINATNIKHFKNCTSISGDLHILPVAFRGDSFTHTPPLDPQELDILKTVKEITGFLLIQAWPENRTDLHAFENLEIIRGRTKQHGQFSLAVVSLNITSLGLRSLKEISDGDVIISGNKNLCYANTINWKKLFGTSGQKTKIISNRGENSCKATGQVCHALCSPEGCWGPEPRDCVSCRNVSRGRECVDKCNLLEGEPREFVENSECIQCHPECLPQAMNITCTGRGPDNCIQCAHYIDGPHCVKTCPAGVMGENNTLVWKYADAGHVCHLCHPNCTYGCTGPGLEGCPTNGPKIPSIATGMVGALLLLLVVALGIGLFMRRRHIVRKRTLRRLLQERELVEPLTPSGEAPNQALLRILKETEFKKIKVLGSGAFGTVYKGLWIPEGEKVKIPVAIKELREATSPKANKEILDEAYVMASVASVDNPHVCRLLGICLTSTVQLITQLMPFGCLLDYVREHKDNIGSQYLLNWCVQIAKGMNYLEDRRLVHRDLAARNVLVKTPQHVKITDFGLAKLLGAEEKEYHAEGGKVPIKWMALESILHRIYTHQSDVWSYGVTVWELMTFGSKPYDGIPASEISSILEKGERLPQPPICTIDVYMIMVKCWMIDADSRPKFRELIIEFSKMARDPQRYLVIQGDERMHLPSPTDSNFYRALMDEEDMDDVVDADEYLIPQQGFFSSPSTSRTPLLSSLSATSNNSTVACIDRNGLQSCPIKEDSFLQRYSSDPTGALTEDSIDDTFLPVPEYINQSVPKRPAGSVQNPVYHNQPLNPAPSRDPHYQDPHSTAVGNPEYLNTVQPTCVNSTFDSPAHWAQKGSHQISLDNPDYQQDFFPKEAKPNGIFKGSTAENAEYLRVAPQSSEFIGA

Row | SMILES | pIC50 [1] | pIC50 [2] | pIC50 [3] | pIC50 [4] | pIC50 [5] | EGFR exon 21 L858R and T790M mutation IC50 [5] | EGFR exon 19 deletion and T790M mutation IC50 [2]
1 | C=CC(=O)Nc1cc(Nc2ncc(C(=O)OCC)c(-c3cn(C)c4ccccc34)n2)c(OC)cc1N(C)CCN(C)C [Example 9, ethyl 2-((5-acrylamido-4-((2-(dimethylamino)ethyl)(methyl)amino)-2-methoxyphenyl)amino)-4-(1-methyl-1H-indol-3-yl)pyrimidine-5-carboxylate] | > 7.00 | > 7.00 | > 7.00 | > 7.00 | > 7.00 | – | –
2 | C=CC(=O)Nc1cc(Nc2ncc(C(=O)OC(C)C)c(-c3cn(C)c4ccccc34)n2)c(OC)cc1N(C)C[C@H]1CCCN1C [Example 36, (R)-isopropyl 2-((5-acrylamido-2-methoxy-4-(methyl((1-methylpyrrolidin-2-yl)methyl)amino)phenyl)amino)-4-(1-methyl-1H-indol-3-yl)pyrimidine-5-carboxylate] | > 7.00 | > 7.00 | > 7.00 | > 7.00 | > 7.00 | – | –
3 | C=CC(=O)Nc1cc(Nc2ncc(C(=O)OC(C)C)c(-c3cn(C)c4ccccc34)n2)c(OC)cc1OCCN(C)C [Example 67, isopropyl 2-((5-acrylamido-4-(2-(dimethylamino)ethoxy)-2-methoxyphenyl)amino)-4-(1-methyl-1H-indol-3-yl)pyrimidine-5-carboxylate] | > 7.00 | > 7.00 | > 7.00 | > 7.00 | > 7.00 | – | –
4 | C=CC(=O)Nc1cc(Nc2nccc(-c3cn(C)c4cc(C#N)ccc34)n2)c(OC)cc1N(C)CCN(C)C [Example 89, N-(5-((4-(6-cyano-1-methyl-1H-indol-3-yl)pyrimidin-2-yl)amino)-2-((2-(dimethylamino)ethyl)(methyl)amino)-4-methoxyphenyl)acrylamide] | > 7.00 | > 7.00 | – | 6.30 to 7.00 | > 7.00 | – | –
5 | C=CC(=O)Nc1cc(Nc2nccc(-c3c(C(N)=O)n(C)c4ccccc34)n2)c(OC)cc1N(C)CCN(C)C [Example 90, 3-(2-((5-acrylamido-4-((2-(dimethylamino)ethyl)(methyl)amino)-2-methoxyphenyl)amino)pyrimidin-4-yl)-1-methyl-1H-indole-2-carboxamide] | 6.30 to 7.00 | > 7.00 | – | 6.00 to 6.30 | > 7.00 | – | –
6 | C=CC(=O)Nc1cc(Nc2nccc(-c3cn(CC(N)=O)c4ccccc34)n2)c(OC)cc1N(C)CCN(C)C [Example 70, N-(5-((4-(1-(2-amino-2-oxoethyl)-1H-indol-3-yl)pyrimidin-2-yl)amino)-2-((2-(dimethylamino)ethyl)(methyl)amino)-4-methoxyphenyl)acrylamide] | > 7.00 | > 7.00 | – | 6.30 to 7.00 | > 7.00 | – | –
7 | C=CC(=O)Nc1cc(Nc2ncc(Cl)c(-c3cnn4ccccc34)n2)c(OC)cc1N(C)CCN(C)C [Example 52, N-(5-((5-chloro-4-(pyrazolo[1,5-a]pyridin-3-yl)pyrimidin-2-yl)amino)-2-((2-(dimethylamino)ethyl)-(methyl)amino)-4-methoxyphenyl)-acrylamide] | > 7.00 | > 7.00 | > 7.00 | 6.30 to 7.00 | > 7.00 | – | –
8 | C=CC(=O)Nc1cc(Nc2ncc(CC)c(-c3cn(CC(=O)NC)c4ccccc34)n2)c(OC)cc1N(C)CCN(C)C [Example 72, N-(2-((2-(dimethylamino)ethyl)(methyl)amino)-5-((5-ethyl-4-(1-(2-(methylamino)-2-oxoethyl)-1H-indol-3-yl)pyrimidin-2-yl)amino)-4-methoxyphenyl)acrylamide] | > 7.00 | > 7.00 | – | 6.30 to 7.00 | > 7.00 | – | –
9 | C=CC(=O)Nc1cc(Nc2ncc(CC)c(-c3cn(CC(N)=O)c4ccccc34)n2)c(OC)cc1N(C)CCN(C)C [Example 71, N-(5-((4-(1-(2-amino-2-oxoethyl)-1H-indol-3-yl)-5-ethylpyrimidin-2-yl)amino)-2-((2-(dimethylamino)ethyl)(methyl)amino)-4-methoxyphenyl)acrylamide] | > 7.00 | > 7.00 | – | 6.30 to 7.00 | > 7.00 | – | –
10 | C=CC(=O)Nc1cc(Nc2ncc(C(=O)OC(C)C)c(-c3cn(C)c4ccccc34)n2)c(OC)cc1N(C)CCN(C)C [Example 10, isopropyl 2-((5-acrylamido-4-((2-(dimethylamino)ethyl)(methyl)amino)-2-methoxyphenyl)amino)-4-(1-methyl-1H-indol-3-yl)pyrimidine-5-carboxylate] | > 7.00 | > 7.00 | > 7.00 | > 7.00 | > 7.00 | – | –
11 | C=CC(=O)Nc1cc(Nc2ncc(C(=O)OC(C)C)c(-c3cn(C)c4ccccc34)n2)c(OC)cc1N(C)C[C@@H]1CCCN1C [Example 35, (S)-isopropyl 2-((5-acrylamido-2-methoxy-4-(methyl((1-methylpyrrolidin-2-yl)methyl)amino)phenyl)amino)-4-(1-methyl-1H-indol-3-yl)pyrimidine-5-carboxylate] | > 7.00 | > 7.00 | > 7.00 | > 7.00 | > 7.00 | – | –
12 | C=CC(=O)Nc1cc(Nc2ncc(C(=O)OC(C)C)c(-c3cn(C)c4ncccc34)n2)c(OC)cc1N(C)CCNC [Example 74, isopropyl 2-((5-acrylamido-2-methoxy-4-(methyl(2-(methylamino)ethyl)amino)phenyl)amino)-4-(1-methyl-1H-pyrrolo[2,3-b]pyridin-3-yl)pyrimidine-5-carboxylate] | > 7.00 | > 7.00 | > 7.00 | 6.30 to 7.00 | – | B (Group B compounds have an IC50 value for the indicated mutant between about 100 to about 500 nM) | –
13 | C=CC(=O)Nc1cc(Nc2nccc(-c3c(C(=O)NC)n(C)c4ccccc34)n2)c(OC)cc1N(C)CCN(C)C [Example 91, 3-(2-((5-acrylamido-4-((2-(dimethylamino)ethyl)(methyl)amino)-2-methoxyphenyl)amino)pyrimidin-4-yl)-N,1-dimethyl-1H-indole-2-carboxamide] | 6.30 to 7.00 | > 7.00 | – | 6.00 to 6.30 | – | B (Group B compounds have an IC50 value for the indicated mutant between about 100 to about 500 nM) | –
14 | C=CC(=O)Nc1cc(Nc2ncc(C(=O)OC(C)C)c(-c3cn(C)c4ccccc34)n2)c(OC)cc1N(C)CCNC [Example 58, isopropyl 2-((5-acrylamido-2-methoxy-4-(methyl(2-(methylamino)ethyl)-amino)phenyl)amino)-4-(1-methyl-1H-indol-3-yl)pyrimidine-5-carboxylate] | > 7.00 | > 7.00 | > 7.00 | > 7.00 | > 7.00 | – | –
15 | C=CC(=O)Nc1cc(Nc2ncc(C(=O)OC(C)C)c(-c3c[nH]c4ncccc34)n2)c(OC)cc1N(C)CCN(C)C [Example 66, isopropyl 2-((5-acrylamido-4-((2-(dimethylamino)ethyl)(methyl)amino)-2-methoxyphenyl)amino)-4-(1H-pyrrolo[2,3-b]pyridin-3-yl)pyrimidine-5-carboxylate] | > 7.00 | > 7.00 | > 7.00 | > 7.00 | > 7.00 | – | –
16 | C=CC(=O)Nc1cc(Nc2ncc(C(=O)OC(C)C)c(-c3cn(C)c4ccccc34)n2)c(OC)cc1N(C)CC1CCCN1C (stereo not drawn) [Example 17, isopropyl 2-((5-acrylamido-2-methoxy-4-(methyl((1-methylpyrrolidin-2-yl)methyl)amino)phenyl)amino)-4-(1-methyl-1H-indol-3-yl)pyrimidine-5-carboxylate] | > 7.00 | > 7.00 | > 7.00 | > 7.00 | > 7.00 | – | –
17 | C=CC(=O)Nc1cc(Nc2nccc(-c3c(-c4ccc(OCc5ccccn5)c(Cl)c4)n(C)c4ccccc34)n2)c(OC)cc1N(C)CCN(C)C [Example 5, N-(5-((4-(2-(3-chloro-4-(pyridin-2-ylmethoxy)phenyl)-1-methyl-1H-indol-3-yl)pyrimidin-2-yl)amino)-2-((2-(dimethylamino)ethyl)(methyl)amino)-4-methoxyphenyl)acrylamide] | 6.30 to 7.00 | – | 6.30 to 7.00 | 6.30 to 7.00 | – | B (Group B compounds have an IC50 value for the indicated mutant between about 100 to about 500 nM) | B (Group B compounds have an IC50 value for the indicated mutant between about 100 to about 500 nM)
18 | C=CC(=O)Nc1cc(Nc2nccc(-c3c(C#N)n(C)c4ccccc34)n2)c(OC)cc1N(C)CCN(C)C [Example 88, N-(5-((4-(2-cyano-1-methyl-1H-indol-3-yl)pyrimidin-2-yl)amino)-2-((2-(dimethylamino)ethyl)(methyl)amino)-4-methoxyphenyl)acrylamide] | > 7.00 | > 7.00 | – | 6.30 to 7.00 | > 7.00 | – | –
19 | C=CC(=O)Nc1cc(Nc2nccc(-c3c(C(=O)OC)n(C)c4ccccc34)n2)c(OC)cc1N(C)CCN(C)C [Example 86, methyl 3-(2-((5-acrylamido-4-((2-(dimethylamino)ethyl)(methyl)amino)-2-methoxyphenyl)amino)pyrimidin-4-yl)-1-methyl-1H-indole-2-carboxylate] | > 7.00 | > 7.00 | – | 6.00 to 6.30 | > 7.00 | – | –
